Where two headings read alike, the source gives them in different places.
Key:
[1] = target: T1, DCAF15 (DDA1-DDB1ΔB-DCAF15Δpro) (Homo sapiens, UniProt Q66K64, DEL276-383); experiment: DCAF15 displacement assay (displacement FRET, probe PT7795); format: binding; conditions: displacement of PT7795 (300 nM), compound 0.01 to 100 μM, 18 hours incubation; read-out: DCAF15 displacement IC50
T1 construct: made in house; host or cells: Sf9 (Bac-to-Bac baculovirus)
From the text: (§1) Proteins used for the assays were as follows: Human DDA1 (UniProt:Q9BW61), DDB1 (UniPro: Q16531), and DCAF15 (UniProt: Q66K64) coding sequences were cloned into pFastBac1 vectors and were co-expressed in Sf9 cells using Bac-to-Bac baculovirus expression system (Thermo Fisher Scientific). The expression construct for DCAF15 includes a N-terminal His6-tag to facilitate the purification.
DCAF15 Displacement Assay (Displacement FRET KD)
Synthesis of the probe PT7795 is described in the article.
Binding of PT7795 to DDA1-DDB1AB-DCAF15Δpro was measured by the FRET signal between europium-labeled anti-His antibody (AD0205, Perkin Elmer) that is associated with His-tagged DCAF15 and ALX647 moiety in PT7795. […] After equilibrating for 2-3 hours at 4° C., the plate was removed from the incubator, briefly spun, then read on a Spark 10 (Tecan) at the excitation/emission wavelength of 340 nm/615 nm and 340 nm/665 nm.
Binding of compounds in this disclosure to DCAF15 was measured in a competition by the displacement of PT7795. The concentration of PT7795 was kept at 300 nM while the concentration of a compound was varied from 0.01 to 100 μM. The incubation time was increased to 18 hours for enhanced signal to noise level.
F=Fmin+(Fmax−Fmin)/(1+10^(logIC50−log[Compound])^n) (Equation 2)
The Kds can then be calculated from IC50s using Equation 3 (Cheng-Prusoff equation).

[2] = tested on: HCT116 human colorectal carcinoma cells; experiment: CellTiter-Glo assay (cell viability); format: cell-based; conditions: HCT-116, 72 h, read-out: CTG IC50
Protocol: HCT116 human colorectal carcinoma cells were used in these experiments. HCT116 cells were obtained from ATCC. CellTiter-Glo® Luminescent Cell Viability Assay Reagent was obtained from Promega.
About 3,000 cells were seeded into 96-well plate with 100 μL of media (DMEM supplemented with 10% FBS, 100 units penicillin, and […] streptomycin per mL) the day before the experiment. For compound treatment, the master plate was prepared as follows: 100× compound stocks were prepared in a 96-well plate by 1 to 3 serial dilutions of 0.5 mM DMSO stocks. Each master plate contained serial dilution of 8 compounds, including the control compound E7820. […] of 100× compound stock was added to each well of the assay plate to give final concentrations of […]. Each concentration was tested in triplicate. After 3 days, cell viability was determined using CellTiter-Glo Luminescent Cell Viability Assay Reagent following the manufacturer's recommended protocol. Briefly, […] of CellTiter-Glo reagent was added to each well of the assay plate and the contents were mixed for 3 minutes at 600 rpm on a shaker (Thermomixer R). The plate was immediately placed in a plate reader (Synergy 2) and the luminescence signal (0.5 second per well integration time) was determined. IC50 values were calculated using Dotmatics software.

[3] = target: T2, DCAF15 RBM39 ternary complex (Homo sapiens, UniProt Q14498+Q66K64, DEL276-383); experiment: DCAF15 RBM39 complex formation assay (FRET); format: biochemical; conditions: FRET ratio, 20 nM DDB1DB/DCAF15, 50 nM RBM39 R1R2, overnight at 4° C.; read-out: DCAF15 RBM39 ternary complex EC50
T2 construct: Amino acids 150 to 331 of RBM39 were cloned into pGEX4T3; GST (from the pGEX4T3 vector, own knowledge) followed by a TEV cleavage site (N); made in house; host or cells: Sf9 baculovirus (DDB1ΔB/DCAF15); E. coli (RBM39 R1R2)
T2 sequence (Q66K64 with tags, fused parts or gaps DEL276-383): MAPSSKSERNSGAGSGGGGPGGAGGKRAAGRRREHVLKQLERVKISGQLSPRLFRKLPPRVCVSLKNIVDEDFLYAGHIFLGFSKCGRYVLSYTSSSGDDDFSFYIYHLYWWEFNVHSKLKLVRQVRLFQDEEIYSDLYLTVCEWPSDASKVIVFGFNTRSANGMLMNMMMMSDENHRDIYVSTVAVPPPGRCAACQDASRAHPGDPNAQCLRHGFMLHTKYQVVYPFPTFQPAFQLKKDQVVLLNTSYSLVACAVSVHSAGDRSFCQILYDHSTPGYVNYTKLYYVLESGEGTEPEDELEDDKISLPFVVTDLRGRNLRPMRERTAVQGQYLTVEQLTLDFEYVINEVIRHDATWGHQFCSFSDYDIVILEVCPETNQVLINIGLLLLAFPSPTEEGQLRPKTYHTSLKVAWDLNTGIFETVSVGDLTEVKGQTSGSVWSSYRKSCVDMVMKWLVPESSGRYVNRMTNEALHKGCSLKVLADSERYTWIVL
T2 sequence (Q14498 150-331, stated change not applied): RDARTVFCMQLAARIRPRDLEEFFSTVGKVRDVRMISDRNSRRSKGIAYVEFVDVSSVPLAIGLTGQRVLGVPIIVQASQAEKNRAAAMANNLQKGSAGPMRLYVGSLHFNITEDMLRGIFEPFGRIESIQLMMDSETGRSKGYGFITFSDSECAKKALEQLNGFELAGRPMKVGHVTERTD
From the text: as §1
DCAF15 RBM39 Complex Formation Assay
LANCE Eu-W1024 Anti-6×His and SureLight Allophycocyanin-anti-FLAG antibodies were purchased from Perkin Elmer. Human DDB1DB and His-tagged DCAF15 were co-expressed in baculovirus/sf9 system. […] The His-tagged DCAF15 contains six histidine residues directly preceding the DCAF15 sequence without any linker. An RBM39 fragment containing RRM1 and RRM2 was expressed in E. coli.
A compound of the present disclosure in DMSO (2 μL) was transferred to a 384-well assay plate. Compound was added in 14 points, 3-fold serial dilution (1 μM to 0.6 pico molar) in DMSO. […] FRET assay buffer (25 mM HEPES, pH 7.5, 100 mM NaCl, […], 0.5 mM TCEP, 0.005% Tween-20, 0.2 nM Eu-W1024 Anti-6×His, 50 nM SureLight Allophycocyanin-anti-FLAG, 20 nM DDB1DB/DCAF15, 50 nM RBM39 R1R2) was added and the resulting solution was incubated overnight at 4° C. […] Low signal controls containing no compound and high signal controls containing 10 mM indisulam were measured for each plate.
EC50 values were calculated using Dotmatics template equation for 4-parameter fit.
Results are expressed as % formation using the following equation: […]

[4] = HCT116 cells, 3 days, CellTiter-Glo luminescence

Structure (SMILES)	IC50 [1] [nM]	IC50 [2, 4] [nM]	EC50 [3] [nM]	IC50 [2] [nM]
O=S1(=O)Nc2c(cc(Cl)c3c(Cl)c[nH]c23)CN1Cc1ccc(C(F)(F)F)nc1 [Compound 49, 6,7-dichloro-3-((6-(trifluoromethyl)pyridin-3-yl)methyl)-1,3,4,9-tetrahydro-[1,2,6] thiadiazino[4,3-g]indole 2,2-dioxide]	8390	2250	0.7	
O=S1(=O)Nc2c(cc(Cl)c3c(Cl)c[nH]c23)CN1CC1COC1 [Compound 34, 6,7-dichloro-3-(oxetan-3-ylmethyl)-1,3,4,9-tetrahydro-[1,2,6]thiadiazino[4,3-g]indole 2,2-dioxide]	689		1.8	126
O=S1(=O)Nc2c(cc(Cl)c3c(Cl)c[nH]c23)CN1Cc1ccc(F)cc1 [Compound 69, 6,7-dichloro-3-(4-fluorobenzyl)-1,3,4,9-tetrahydro-[1,2,6] thiadiazino[4,3-g]indole 2,2-dioxide]	7560	1200	3.9	
N#Cc1c[nH]c2c3c(cc(Cl)c12)CNS(=O)(=O)N3 [Compound 58, 6-chloro-1,3,4,9-tetrahydro-[1,2,6]thiadiazino[4,3-g]indole-7-carbonitrile 2,2-dioxide]	14900	5000	46.2	
Cc1ccncc1CN1Cc2cc(Cl)c3c(Cl)c[nH]c3c2NS1(=O)=O [Compound 55, 6,7-dichloro-3-((4-methylpyridin-3-yl)methyl)-1,3,4,9-tetrahydro-[1,2,6] thiadiazino[4,3-g]indole 2,2-dioxide]	174	108	1.7	
O=S1(=O)Nc2c(cc(Cl)c3c(Cl)c[nH]c23)CN1Cc1cncnc1 [Compound 33, 6,7-dichloro-3-(pyrimidin-5-ylmethyl)-1,3,4,9-tetrahydro-[1,2,6]thiadiazino[4,3-g] indole 2,2-dioxide]	530	162	2.3	
O=S1(=O)Nc2c(cc(Cl)c3c(Cl)c[nH]c23)CN1Cc1ccc(C(F)F)nc1 [Compound 53, 6,7-dichloro-3-((6-(difluoromethyl)pyridin-3-yl)methyl)-1,3,4,9-tetrahydro-[1,2,6]thiadiazino [4,3-g]indole 2,2-dioxide]	4280	394	3.4	
CS(=O)(=O)N1CCC(CN2Cc3cc(Cl)c4c(Cl)c[nH]c4c3NS2(=O)=O)CC1 [Compound 72, 6,7-dichloro-3-((1-(methylsulfonyl)piperidin-4-yl)methyl)-1,3,4,9-tetrahydro-[1,2,6]thiadiazino[4,3-g]indole 2,2-dioxide]	223	150	1.2	
Cc1nnc(CN2Cc3cc(Cl)c4c(Cl)c[nH]c4c3NS2(=O)=O)o1 [Compound 36, 6,7-dichloro-3-((5-methyl-1,3,4-oxadiazol-2-yl)methyl)-1,3,4,9-tetrahydro-[1,2,6] thiadiazino[4,3-g]indole 2,2-dioxide]	963	236	2.1	
COCCN1Cc2cc(Cl)c3c(Cl)n[nH]c3c2NS1(=O)=O [Compound 64, 6,7-dichloro-3-(2-methoxyethyl)-1,3,4,9-tetrahydro-[1,2,6]thiadiazino[4,3-g]indazole 2,2-dioxide]	4560	5000	10	
O=S1(=O)NCc2cc(Cl)c3c(Cl)c[nH]c3c2N1 [Compound 3, 6,7-dichloro-1,3,4,9-tetrahydro-[1,2,6]thiadiazino[4,3-g]indole 2,2-dioxide]	27800	1430	8.1	
O=S1(=O)Nc2c(cc(Cl)c3c(Cl)c[nH]c23)CN1CC1CCOCC1 [Compound 44, 6,7-dichloro-3-((tetrahydro-2H-pyran-4-yl)methyl)-1,3,4,9-tetrahydro-[1,2,6] thiadiazino[4,3-g]indole 2,2-dioxide]	276	62.2	1.8	
COCCN1Cc2cc(Cl)c3c(C#N)c[nH]c3c2NS1(=O)=O [Compound 8, 6-chloro-3-(2-methoxyethyl)-1,3,4,9-tetrahydro-[1,2,6] thiadiazino[4,3-g]indole7-carbonitrile 2,2-dioxide]	3340	3160	6.2	
CCCC1=Cc2ccc3c(Cl)c[nH]c3c2NS1(=O)=O [Compound 9, 7-chloro-3-propyl-1,9-dihydro-[1,2]thiazino[4,3-g]indole 2,2-dioxide]	≥ 100000	5000	74.7	
COCCN1Cc2cc(Cl)c3c(Cl)c[nH]c3c2NS1(=O)=O [Compound 1, 6,7-dichloro-3-(2-methoxyethyl)-1,3,4,9-tetrahydro-[1,2,6] thiadiazino[4,3-g]indole 2,2-dioxide]	3160	475	5.5	
CN(C)CCN1Cc2cc(Cl)c3c(Cl)c[nH]c3c2NS1(=O)=O [Compound 41, 6,7-dichloro-3-(2-(dimethylamino)ethyl)-1,3,4,9-tetrahydro-[1,2,6] thiadiazino[4,3-g]indole 2,2-dioxide]	17500	183	10.6	
Cn1cnc(CN2Cc3cc(Cl)c4c(Cl)c[nH]c4c3NS2(=O)=O)n1 [Compound 37, 6,7-dichloro-3-((1-methyl-1H-1,2,4-triazol-3-yl)methyl)-1,3,4,9-tetrahydro-[1,2,6] thiadiazino[4,3-g]indole 2,2-dioxide]	2000	568	2.5	
O=S1(=O)NCc2nc(Cl)c3c(Cl)c[nH]c3c2N1 [Compound 31, 6,7-dichloro-1,3,4,9-tetrahydropyrrolo[2′,3′:4,5]pyrido[3,2-c][1,2,6]thiadiazine 2,2-dioxide]	≥ 100000	4510	263	
Cn1cc(CN2Cc3cc(Cl)c4c(Cl)c[nH]c4c3NS2(=O)=O)cn1 [Compound 43, 6,7-dichloro-3-((1-methyl-1H-pyrazol-4-yl)methyl)-1,3,4,9-tetrahydro-[1,2,6] thiadiazino[4,3-g]indole 2,2-dioxide]	1050	246	2.7	
CNCCN1Cc2cc(Cl)c3c(Cl)c[nH]c3c2NS1(=O)=O [Compound 28, 6,7-dichloro-3-(2-(methylamino)ethyl)-1,3,4,9-tetrahydro-[1,2,6] thiadiazino[4,3-g]indole 2,2-dioxide]	28000	501	1.4	

Source: patent publication US20240294548A1, “TRICYCLIC SULTAMS AND SULFAMIDES AS ANTITUMOR AGENTS” (PELOTON THERAPEUTICS INC., priority 2021, published 2024)
